Measured values: ChEMBL document CHEMBL1201862, “PubChem BioAssay data set” (2004)
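Growth conditions: 96-well plates. Treatment: test compound, 48 hours, 5 concentrations. Analysis: linear interpolation between bracketing concentrations; unreached endpoints set to highest concentration. At the GI50, growth is halved.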 Calls of active or inactive are those of the source. Rule as the data show it: active = GI50 up to about 1.1 µM and inactive = higher.

What was measured:
Assay in all cases: inhibition of tumour cell growth, NCI panel, 48 h
786-0 = tested on: 786-0
A498 = tested on: A498
A549 = tested on: A549
ACHN = tested on: ACHN
BT-549 = tested on: BT-549
CCRF-CEM = tested on: CCRF-CEM
COLO 205 = tested on: COLO 205
DU-145 = tested on: DU-145
EKVX = tested on: EKVX
HCC 2998 = tested on: HCC 2998
HCT-116 = tested on: HCT-116
HCT-15 = tested on: HCT-15
HL-60 = tested on: HL-60
HOP-62 = tested on: HOP-62
HOP-92 = tested on: HOP-92
HT-29 = tested on: HT-29
Hs-578T = tested on: Hs-578T
IGROV-1 = tested on: IGROV-1
K562 = tested on: K562
KM12 = tested on: KM12
LOX IMVI = tested on: LOX IMVI
M14 = tested on: M14
MCF7 = tested on: MCF7
MDA-MB-231 = tested on: MDA-MB-231
MDA-MB-435 = tested on: MDA-MB-435
MDA-N = tested on: MDA-N
MOLT-4 = tested on: MOLT-4
Malme-3M = tested on: Malme-3M
NCI-H226 = tested on: NCI-H226
NCI-H23 = tested on: NCI-H23
NCI-H460 = tested on: NCI-H460
NCI-H522 = tested on: NCI-H522
NCI/ADR-RES = tested on: NCI/ADR-RES
OVCAR-3 = tested on: OVCAR-3
OVCAR-4 = tested on: OVCAR-4
OVCAR-5 = tested on: OVCAR-5
OVCAR-8 = tested on: OVCAR-8
PC-3 = tested on: PC-3
RPMI-8226 = tested on: RPMI-8226
RXF 393 = tested on: RXF 393
SF-268 = tested on: SF-268
SF-295 = tested on: SF-295
SF-539 = tested on: SF-539
SK-MEL-28 = tested on: SK-MEL-28
SK-MEL-2 = tested on: SK-MEL-2
SK-MEL-5 = tested on: SK-MEL-5
SK-OV-3 = tested on: SK-OV-3
SN12C = tested on: SN12C
SNB-19 = tested on: SNB-19
SNB-75 = tested on: SNB-75
SR = tested on: SR
SW-620 = tested on: SW-620
T47D = tested on: T47D
TK-10 = tested on: TK-10
U-251 = tested on: U-251
UACC-257 = tested on: UACC-257
UACC-62 = tested on: UACC-62
UO-31 = tested on: UO-31
CAKI-1 = tested on: CAKI-1

`CN(NC(=O)CCCl)C1=NCCCCN1` was tested, and the GI50 (786-0) was > 100 µM (inactive), the GI50 (A498) was > 100 µM (inactive) and the GI50 (A549) was > 100 µM (inactive). The GI50 (ACHN) was > 100 µM (inactive), the GI50 (BT-549) was > 100 µM (inactive) and the GI50 (CCRF-CEM) was > 100 µM (inactive). For the same molecule, the GI50 (COLO 205) was > 100 µM (inactive), the GI50 (DU-145) was > 100 µM (inactive) and the GI50 (EKVX) was > 100 µM (inactive). The GI50 (HCC 2998) was > 100 µM (inactive), the GI50 (HCT-116) was > 100 µM (inactive) and the GI50 (HCT-15) was greater than 100 µM. The GI50 (HL-60) was > 100 µM (inactive), the GI50 (HOP-62) was > 100 µM (inactive) and the GI50 (HOP-92) was > 100 µM (inactive). The GI50 (HT-29) was > 100 µM (inactive), the GI50 (Hs-578T) was > 100 µM (inactive) and the GI50 (IGROV-1) was > 100 µM (inactive). For the same molecule, the GI50 (K562) was > 100 µM (inactive), the GI50 (KM12) was > 100 µM (inactive) and the GI50 (LOX IMVI) was > 100 µM (inactive). For the same molecule, the GI50 (M14) was > 100 µM (inactive), the GI50 (MCF7) was > 100 µM (inactive) and the GI50 (MDA-MB-231) was > 100 µM (inactive). For the same molecule, the GI50 (MDA-MB-435) was > 100 µM (inactive), the GI50 (MDA-N) was > 100 µM (inactive) and the GI50 (MOLT-4) was > 100 µM (inactive). The GI50 (Malme-3M) was > 100 µM (inactive), the GI50 (NCI-H226) was > 100 µM (inactive) and the GI50 (NCI-H23) was > 100 µM (inactive). For the same molecule, the GI50 (NCI-H460) was > 100 µM (inactive), the GI50 (NCI-H522) was > 100 µM (inactive) and the GI50 (NCI/ADR-RES) was > 100 µM (inactive). The GI50 (OVCAR-3) was > 100 µM (inactive), the GI50 (OVCAR-4) was > 100 µM (inactive) and the GI50 (OVCAR-5) was > 100 µM (inactive). For the same molecule, the GI50 (OVCAR-8) was > 100 µM (inactive), the GI50 (PC-3) was > 100 µM (inactive) and the GI50 (RPMI-8226) was > 100 µM (inactive). The GI50 (RXF 393) was > 100 µM (inactive), the GI50 (SF-268) was > 100 µM (inactive) and the GI50 (SF-295) was > 100 µM (inactive). For the same molecule, the GI50 (SF-539) was > 100 µM (inactive), the GI50 (SK-MEL-28) was > 100 µM (inactive) and the GI50 (SK-MEL-2) was > 100 µM (inactive). The GI50 (SK-MEL-5) was > 100 µM (inactive), the GI50 (SK-OV-3) was > 100 µM (inactive) and the GI50 (SN12C) was > 100 µM (inactive). For the same molecule, the GI50 (SNB-19) was > 100 µM (inactive), the GI50 (SNB-75) was > 100 µM (inactive) and the GI50 (SR) was > 100 µM (inactive). The GI50 (SW-620) was > 100 µM (inactive), the GI50 (T47D) was > 100 µM (inactive) and the GI50 (TK-10) was > 100 µM (inactive). For the same molecule, the GI50 (U-251) was > 100 µM (inactive), the GI50 (UACC-257) was > 100 µM (inactive) and the GI50 (UACC-62) was > 100 µM (inactive). For the same molecule, the GI50 (UO-31) was > 100 µM (inactive).

In the case of `O=C1c2c(Cl)c(Cl)c(Cl)c(Cl)c2C(=O)N1CCN(c1c(Cl)ssc1=O)c1c(Cl)ssc1=O`, the GI50 (786-0) is reported as 18.2 µM (inactive), the GI50 (A498) is reported as > 100 µM (inactive) and the GI50 (A549) is reported as > 100 µM (inactive). The GI50 (ACHN) was 18.2 µM (inactive), the GI50 (BT-549) was 30.9 µM (inactive) and the GI50 (CAKI-1) was 17.5 µM (inactive). The GI50 (CCRF-CEM) was 4.36 µM (inactive), the GI50 (COLO 205) was 18.2 µM (inactive) and the GI50 (DU-145) was 19 µM (inactive). The GI50 (EKVX) was 32.1 µM (inactive), the GI50 (HCC 2998) was 21.2 µM (inactive) and the GI50 (HCT-116) was 16.1 µM (inactive). The GI50 (HCT-15) was 19.5 µM, the GI50 (HL-60) was 30.2 µM (inactive) and the GI50 (HOP-62) was > 100 µM (inactive). For the same molecule, the GI50 (HOP-92) was 20.1 µM (inactive), the GI50 (HT-29) was 19.5 µM (inactive) and the GI50 (Hs-578T) was > 100 µM (inactive). The GI50 (IGROV-1) was 46.2 µM (inactive), the GI50 (K562) was 20.7 µM (inactive) and the GI50 (KM12) was 54.8 µM (inactive). The GI50 (LOX IMVI) was 21.9 µM (inactive), the GI50 (M14) was 21.5 µM (inactive) and the GI50 (MCF7) was 19.6 µM (inactive). For the same molecule, the GI50 (MDA-MB-231) was 36.1 µM (inactive), the GI50 (MDA-MB-435) was 19.8 µM (inactive) and the GI50 (MDA-N) was 18.5 µM (inactive). The GI50 (MOLT-4) was 10.3 µM (inactive), the GI50 (Malme-3M) was 25.2 µM (inactive) and the GI50 (NCI-H226) was > 100 µM (inactive). The GI50 (NCI-H23) was 40.9 µM (inactive), the GI50 (NCI-H460) was 32.1 µM (inactive) and the GI50 (NCI-H522) was 23.2 µM (inactive). The GI50 (NCI/ADR-RES) was 49.3 µM (inactive), the GI50 (OVCAR-3) was 18.7 µM (inactive) and the GI50 (OVCAR-4) was 18.2 µM (inactive). For the same molecule, the GI50 (OVCAR-5) was 50.1 µM (inactive), the GI50 (OVCAR-8) was 21.7 µM (inactive) and the GI50 (PC-3) was 22.9 µM (inactive). For the same molecule, the GI50 (RXF 393) was 16.4 µM (inactive), the GI50 (SF-268) was 71.9 µM (inactive) and the GI50 (SF-295) was > 100 µM (inactive). For the same molecule, the GI50 (SF-539) was 19.1 µM (inactive), the GI50 (SK-MEL-28) was 58.3 µM (inactive) and the GI50 (SK-MEL-2) was 24.2 µM (inactive). The GI50 (SK-MEL-5) was > 100 µM (inactive), the GI50 (SK-OV-3) was > 100 µM (inactive) and the GI50 (SN12C) was 23.4 µM (inactive). The GI50 (SNB-19) was > 100 µM (inactive), the GI50 (SNB-75) was 31.6 µM (inactive) and the GI50 (SR) was 20 µM (inactive). For the same molecule, the GI50 (SW-620) was 22.5 µM (inactive), the GI50 (T47D) was 17.1 µM (inactive) and the GI50 (TK-10) was 18.7 µM (inactive). The GI50 (U-251) was 95.9 µM (inactive), the GI50 (UACC-257) was 16.9 µM (inactive) and the GI50 (UACC-62) was 19.3 µM (inactive). The GI50 (UO-31) was 18.2 µM (inactive).
